Earlier results on two substances are cited in PMC6476928 (Frontiers in Pharmacology, 2019).

One series deals with kv4.1. The following applies: X. laevis oocytes; cited from earlier work. An excerpt: Supplement Data_Sheet_1.docx, table 1: Supplementary Table 1.Activity of spider toxins on Kv2 and Kv4 channel subtypes Activities of spider toxins against different subtypes of Kv2 and Kv4 potassium channels are reported as IC50 (nanomolar) or as percentage of current inhibition at a single dose (nanomolar). Affinity (IC50) measurements | column: kv4.1

The next series deals with T1, Kv4.2 (Homo sapiens, UniProt Q9NZV8).
T1 sequence (Q9NZV8 1-630): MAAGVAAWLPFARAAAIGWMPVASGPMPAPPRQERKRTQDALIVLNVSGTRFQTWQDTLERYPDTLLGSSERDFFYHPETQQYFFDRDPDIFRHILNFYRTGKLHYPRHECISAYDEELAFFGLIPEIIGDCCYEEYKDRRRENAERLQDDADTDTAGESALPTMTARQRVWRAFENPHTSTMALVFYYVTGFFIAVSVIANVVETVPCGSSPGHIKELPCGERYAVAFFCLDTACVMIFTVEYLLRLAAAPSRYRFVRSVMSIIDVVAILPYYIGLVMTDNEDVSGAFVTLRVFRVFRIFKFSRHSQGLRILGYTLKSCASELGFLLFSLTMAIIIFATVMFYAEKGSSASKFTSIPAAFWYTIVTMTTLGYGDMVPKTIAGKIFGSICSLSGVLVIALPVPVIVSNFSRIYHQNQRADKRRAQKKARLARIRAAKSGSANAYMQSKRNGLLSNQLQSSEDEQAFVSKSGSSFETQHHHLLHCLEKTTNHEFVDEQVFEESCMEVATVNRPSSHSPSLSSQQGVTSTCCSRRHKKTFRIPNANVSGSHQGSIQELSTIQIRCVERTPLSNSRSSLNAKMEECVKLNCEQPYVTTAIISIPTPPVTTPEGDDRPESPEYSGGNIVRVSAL
T1 sequence (Q9NS61 1-270 partner): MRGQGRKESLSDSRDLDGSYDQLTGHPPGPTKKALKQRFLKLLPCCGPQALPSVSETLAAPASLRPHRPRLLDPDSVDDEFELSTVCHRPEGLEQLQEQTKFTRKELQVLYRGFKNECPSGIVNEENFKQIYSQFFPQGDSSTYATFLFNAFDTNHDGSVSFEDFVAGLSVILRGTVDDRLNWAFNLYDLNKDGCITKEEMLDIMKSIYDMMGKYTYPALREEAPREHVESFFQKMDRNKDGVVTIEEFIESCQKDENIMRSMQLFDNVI
To be noted: X. laevis oocytes, cited from earlier work. An excerpt:
(§1) Supplement Data_Sheet_1.docx, table 1: Supplementary Table 1.Activity of spider toxins on Kv2 and Kv4 channel subtypes Activities of spider toxins against different subtypes of Kv2 and Kv4 potassium channels are reported as IC50 (nanomolar) or as percentage of current inhibition at a single dose (nanomolar). Affinity (IC50) measurements | column: kv4.2 || Animal toxins target ion channels, and are thus valuable resources with potential therapeutic applications. The Kv4 subfamily from scorpion ([Maffie et al., 2013]; [Xie et al., 2014]) and spider venom ([Escoubas et al., 2002]; [Ebbinghaus et al., 2004]; [Yuan et al., 2007], [2012]; [DeSimone et al., 2009]) has a rich toxin pharmacology. HaTx, originally isolated from venom of the Chilean rose tarantula (Grammostola spatulata), inhibits Kv4.2 channels effectively, with similar affinity for Kv2.1 ([Swartz and MacKinnon, 1995]; [Swartz, 2007]). Other Kv4 channel inhibitors, Stromatoxin (ScTx1) fr ...

Another series concerns kv2.1. The following applies: X. laevis oocytes, Hill relation nH = 1; cited from earlier work.
Description: as §1, with “kv2.1” for “kv4.2”

Take Stromatoxin [ScTx1, reference compound]: the “activity on kv4.1” value in the series on kv4.1 is listed as “No O”. The concentration for half-maximal inhibition (IC50) (usually the concentration that gives 50% inhibition) on Kv4.2 (Hill relation nH = 1) was 1.2 nM.
As to hanatoxin [HaTx1, reference compound], on Kv4.2 (500nM, read-out: percentage of current inhibition kv4.2), the inhibition – broadly, how much of the control response was suppressed – was 70%. Also, in the series with kv2.1, the IC50 was 42 nM.
